Square brackets hold non-standard residues; d marks the D form. Peptide text beside a SMILES is read from it. Cya = N[C@@H](CS(=O)(=O)O)C(=O)O
How the values were obtained:
Format in all cases: cell-based
human RPE cells [1] = conditions: RSG 0.4 mM co-treatment with HQ 175 μM, 1.5 hours, vs HQ-treated cells
Experimental: RPE cells were seeded in triplicate wells of collagen-coated XF 24-well plates and grown for 24 hours. RPE cells that had just reached confluence were washed with SF-MEM and treated for 1.5 hours with HQ (175 μM) with or without RSG (0.4 mM). Media were removed and cells were washed with XF base medium containing 1 mM sodium pyruvate, 2 mM glutamine and 8 mM glucose, pH 7.4. The cells were incubated for 1 hour at 37° C. in a C02-free incubator. Oxygen consumption rate (OCR) was measured by Seahorse XFe24 flux analyzer under basal conditions followed by the sequential addition of 1 μM oligomycin, 1 μM tri-fluorocarbonylcyanide phenylhydrazone (FCCP), and 1 μM rotenone and antimycin A. Maximal OCR was the difference in OCR between FCCP-induced respiration and OCR after injection of antimycin A. Mitochondrial spare respiratory capacity was the difference between maximal respiration and basal OCR. Media were removed and the total proteins were extracted for BCA protein assay after OCR measurements. OCRs were normalized to total protein content.

human RPE cells [2] = assay: WST assay (mitochondrial dehydrogenase activity / cell viability); conditions: 2.5 hours
Experimental: Human donor RPE cells were seeded on collagen-coated 96-well plates, 24-well plates with or without coverslips, 6-well plates (Corning-Costar Incorporated, Corning, N.Y., USA). Except for the Seahorse assay, on day 6 after plating, cells were washed twice with serum-free and phenol red-free MEM (SF-MEM), treated with HQ at a various concentrations in the presence or absence of RSG (0.4 mM) in SF-MEM for various times at 37° C. RSG co-treatment refers to the condition in which cells were treated with RSG in the presence of HQ. Control refers to the condition in which cells were not treated. RPE cells in triplicate wells of a 96-well plate were treated with HQ (150 μM) for 2.5 hours in the presence or absence of RSG (0.4 mM). The medium was removed and cells were incubated with WST-1 solution for 30 minutes at 37° C. A colorimetric assay was performed based on the cleavage of the tetrazolium salt WST-1 by mitochondrial dehydrogenases in viable cells. The plate was read on a spectrophotometer at 440 nm with a reference wavelength at 690 nm.

human RPE cells [3] = assay: F-actin immunofluorescent staining (phalloidin), aggregate quantification; conditions: 6 hours
Experimental: Human donor RPE cells were seeded on collagen-coated 96-well plates, 24-well plates with or without coverslips, 6-well plates (Corning-Costar Incorporated, Corning, N.Y., USA). Except for the Seahorse assay, on day 6 after plating, cells were washed twice with serum-free and phenol red-free MEM (SF-MEM), treated with HQ at a various concentrations in the presence or absence of RSG (0.4 mM) in SF-MEM for various times at 37° C. RSG co-treatment refers to the condition in which cells were treated with RSG in the presence of HQ. Control refers to the condition in which cells were not treated. RPE cells in triplicate wells of a 24-well plate containing collagen-coated coverslips were treated for 6 hours with HQ (140 μM) in the presence or absence of RSG (0.4 mM) and then fixed in 4% paraformaldehyde for 12 minutes at room temperature (RT). Cells were permeabilized with 0.5% Triton X-100 for 12 minutes and incubated for 1 hour at RT with phalloidin-TRITC in 0.5% bovine serum albumin/0.1% Triton X-100/PBS. The percentage of F-actin aggregates was determined by a masked observer. […] For data analysis, segmented images were converted to eight-bit, binary images and F-actin aggregates were quantified using the particle analyzer function (0-infinity size and 0-1 circularity) in Fiji.

human RPE cells [4] = assay: Determination of ROS (CM-H2DCFDA fluorescence); conditions: HQ 160 μM vs control
Experimental: Human donor RPE cells were seeded on collagen-coated 96-well plates, 24-well plates with or without coverslips, 6-well plates (Corning-Costar Incorporated, Corning, N.Y., USA). Except for the Seahorse assay, on day 6 after plating, cells were washed twice with serum-free and phenol red-free MEM (SF-MEM), treated with HQ at a various concentrations in the presence or absence of RSG (0.4 mM) in SF-MEM for various times at 37° C. RSG co-treatment refers to the condition in which cells were treated with RSG in the presence of HQ. Control refers to the condition in which cells were not treated. RPE cells in triplicate wells of a 96-well black plates with clear bottoms were washed with SF-MEM, loaded with 20 μM CM-H2DCFDA in SF-MEM for 30 minutes at 37° C. and then washed twice. Cells were then treated with HQ (160 μM) in the presence or absence of RSG (0.4 mM). Fluorescence was measured at various times with a fluorescence plate reader (490 nm excitation, 522 nm emission).

SMILES	ATP production (human RPE cells [1])	spare respiratory capacity (human RPE cells [1])	cell viability (WST-1, mitochondrial dehydrogenase activity) (human RPE cells [2]; RSG 0.4 mM co-treatment with HQ 150 μM, vs HQ alone)	F-actin aggregates (human RPE cells [3]; RSG 0.4 mM co-treatment with HQ 140 μM)	cell viability (WST-1) (human RPE cells [2]; HQ 150 μM)	ROS production (human RPE cells [4])	number of F-actin aggregates (human RPE cells [3]; HQ 140 μM, vs control)
C[C@@H](O)[C@H](NC(=O)[C@H](CS(=O)(=O)O)NC(=O)CNC(=O)[C@H](CCCNC(=N)N)NC(=O)CN)C(=O)N1CCC[C@H]1C(=O)O [Risuteganib, Glycyl-L-arginylglycyl-3-sulfo-L-alanyl-L-threonyl-L-proline] (H-GRG[Cya]TP-OH)	significantly increased	significantly increased	significantly increased cell viability	significantly inhibited the production of HQ-induced aggregates			
Oc1ccc(O)cc1 [HQ, hydroquinone, reference compound]					significantly decreased cell viability	significantly increased	significantly increased the number of F-actin aggregates

— patent publication US20210275624A1, “TREATMENTS FOR IMPROVING OR LESSENING IMPAIRMENT OF MITOCHONDRIAL FUNCTION” (priority 2020, published 2021)
